Residues, ends and D or L forms follow the SMILES beside them. *: point of attachment. AMC = Cc1cc(=O)oc2cc(N*)ccc12; Cbz = O=C(OCc1ccccc1)*
Columns and labels:
[1] = biological target: T1, papain (Carica papaya, UniProt P00784); assay: RP-HPLC of released AMC; assay type: biochemical; settings: pH 4.8 acetate, 37 °C, 100 µM substrate, cysteine; medium also held H2O2, hemin/chloroquine
T1 construct: native commercial enzyme (Sigma)
T1 sequence (P00784 134-345): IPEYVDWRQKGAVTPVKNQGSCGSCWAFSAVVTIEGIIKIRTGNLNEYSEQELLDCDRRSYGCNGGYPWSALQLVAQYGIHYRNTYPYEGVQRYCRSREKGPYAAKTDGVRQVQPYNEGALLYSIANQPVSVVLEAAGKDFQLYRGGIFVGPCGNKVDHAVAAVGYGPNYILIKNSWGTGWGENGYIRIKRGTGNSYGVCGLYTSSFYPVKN

[2] = biological target: T2, cathepsin B (Bos taurus, UniProt P07688); assay: RP-HPLC of released AMC; assay type: biochemical; settings: 100 µM substrate, 37 °C, cysteine, globin, H2O2; hemin/chloroquine incubation medium
T2 construct: gene CTSB; native commercial enzyme from bovine spleen (Sigma)

What does the source list for `Cc1cc(=O)oc2cc(NC(=O)[C@H](CCCNC(=N)N)NC(=O)[C@H](Cc3ccccc3)NC(=O)OCc3ccccc3)ccc12` [Z-Phe-Arg-AMC] (Cbz-Phe-Arg-{AMC})?
RP-HPLC of released AMC [1]: papain, ficin and cathepsin-B using Z-Phe-Arg-AMC peptide; RP-HPLC of released AMC [2]: papain, ficin and cathepsin-B using Z-Phe-Arg-AMC peptide

— article PMC6817881, “Antimalarial Quinoline Drugs Inhibit β-Hematin and Increase Free Hemin Catalyzing Peroxidative Reactions and Inhibition of Cysteine Proteases” (Scientific Reports, 2019)
